According to patent US20240228458A1, “PYRIMIDINE DERIVATIVE HAVING PROTEIN KINASE INHIBITORY ACTIVITY, AND THERAPEUTIC PHARMACEUTICAL COMPOSITION COMPRISING SAME” (THERAPEX CO., LTD., priority 2021, published 2024):

Columns and labels:
Assay type in all cases: cell-based
[1] = tested on: Ba/F3 cells expressing EGFR-wt; assay: Growth inhibition (GI50) of Ba/F3 cells expressing EGFR-wt, Celltiter glo; details: Mus musculus, BaF3, 72 h
Method in brief: (§1)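 We seed Ba/F3 transfectants at 100,000 cells/ml, dose them with ten 4-fold compound dilutions (2 mM top stock, 0.5% DMSO) after 4 h, and culture for 72 h at 37 °C. CellTiter-Glo then reports viable cell number, from which the GI50 is fitted.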

[2] = tested on: Ba/F3 cells expressing del19/T790M/C797S (EGFR-DTC); assay: Growth inhibition (GI50) of Ba/F3 cells expressing del19/T790M/C797S (EGFR-DTC), Celltiter glo; details: Mus musculus, BaF3, 72 h
Method in brief: as §1

[3] = tested on: Ba/F3 cells expressing L858R/T790M/C797S (EGFR-LTC); assay: Growth inhibition (GI50) of Ba/F3 cells expressing L858R/T790M/C797S (EGFR-LTC), Celltiter glo; details: Mus musculus, BaF3, 72 h
Method in brief: as §1

[4] = tested on: Ba/F3 cells expressing del19/T790M (EGFR-DT); assay: Growth inhibition (GI50) of Ba/F3 cells expressing del19/T790M (EGFR-DT), Celltiter glo; details: Mus musculus, BaF3, 72 h
Method in brief: as §1

[5] = tested on: Ba/F3 cells expressing L858R/T790M (EGFR-LT); assay: Growth inhibition (GI50) of Ba/F3 cells expressing L858R/T790M (EGFR-LT), Celltiter glo; details: Mus musculus, BaF3, 72 h
Method in brief: as §1

parental Ba/F3 cell line = assay: Growth inhibition (GI50) of the parental Ba/F3 cell line (not introduced with EGFR variants), Celltiter glo; details: Mus musculus, BaF3, 72 h, parental Ba/F3 cells
Method in brief: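 Viable cell count by CellTiter-Glo after 72 h at 37 °C gave GI50 values (μM, 50% growth inhibition). Cells lacking EGFR variants were seeded at 100,000 cells/ml and dosed 4 h later with 4-fold serial dilutions from a 2 mM stock, 0.5% DMSO.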

GI50 [1] [µM]	GI50 [2] [µM]	GI50 [3] [µM]	GI50 [4] [µM]	GI50 [5] [µM]	Structure (SMILES)	GI50 (parental Ba/F3 cell line) [µM]
0.1 to 0.5	0.025 to 0.1	0.001 to 0.025	0.001 to 0.025	0.001 to 0.025	COc1cc(N2CCC(N3CCN(C4CC4)CC3)CC2)c(C)cc1Nc1ncc(Br)c(Nc2cc3c(cc2NS(C)(=O)=O)CCO3)n1 [Example 212, N-(6-((5-bromo-2-((4-(4-(4-cyclopropylpiperazin-1-yl)piperidin-1-yl)-2-methoxy-5-methylphenyl)amino)pyrimidin-4-yl)amino)-2,3-dihydrobenzofuran-5-yl)methanesulfonamide]	2 to 10
0.1 to 0.5	0.025 to 0.1	0.025 to 0.1	0.001 to 0.025	0.1 to 0.5	Cc1cc(Nc2ncc(Br)c(Nc3cc4c(cc3NS(C)(=O)=O)CCO4)n2)c(Cl)cc1N1CCC(N2CCC(N(C)C)C2)CC1 (stereo not drawn) [Example 213, N-(6-((5-bromo-2-((2-chloro-4-(4-(3-(dimethylamino)pyrrolidin-1-yl)piperidin-1-yl)-5-methylphenyl)amino)pyrimidin-4-yl)amino)-2,3-dihydrobenzofuran-5-yl)methanesulfonamide]	2 to 10
0.1 to 0.5	0.025 to 0.1	0.025 to 0.1	0.001 to 0.025	0.001 to 0.025	Cc1cc(Nc2ncc(Br)c(Nc3cc4c(cc3NS(C)(=O)=O)CCO4)n2)c(Cl)cc1N1CCC(N2CCCC(N(C)C)C2)CC1 (stereo not drawn) [Example 214, N-(6-((5-bromo-2-((2-chloro-4-(3-(dimethylamino)-[1,4′-bipiperidin]-1′-yl)-5-methylphenyl)amino)pyrimidin-4-yl)amino)-2,3-dihydrobenzofuran-5-yl)methanesulfonamide]	2 to 10
0.1 to 0.5	0.025 to 0.1	0.025 to 0.1	0.001 to 0.025	0.025 to 0.1	COc1cc(N2CCC(N3CCNCC3)CC2)c(C)cc1Nc1ncc(Br)c(Nc2cc3c(cc2NS(C)(=O)=O)CCO3)n1 [Example 215, N-(6-((5-bromo-2-((2-methoxy-5-methyl-4-(4-(piperazin-1-yl)piperidin-1-yl)phenyl)amino)pyrimidin-4-yl)amino)-2,3-dihydrobenzofuran-5-yl)methanesulfonamide]	2 to 10
0.025 to 0.1	0.001 to 0.025	0.025 to 0.1	0.001 to 0.025	0.001 to 0.025	COc1cc(N2CCC(N3CCCC(N(C)C)C3)CC2)c(Cl)cc1Nc1ncc(Br)c(Nc2cc3c(cc2NS(C)(=O)=O)CCO3)n1 (stereo not drawn) [Example 216, N-(6-((5-bromo-2-((5-chloro-4-(3-(dimethylamino)-[1,4′-bipiperidin]-1′-yl)-2-methoxyphenyl)amino)pyrimidin-4-yl)amino)-2,3-dihydrobenzofuran-5-yl)methanesulfonamide]	2 to 10
0.1 to 0.5	0.001 to 0.025	0.001 to 0.025	0.001 to 0.025	0.001 to 0.025	CN1CCN(C2CCN(c3cc(Cl)c(Nc4ncc(Br)c(Nc5cc6c(cc5NS(C)(=O)=O)CCO6)n4)cc3Cl)CC2)CC1 [Example 217, N-(6-((5-bromo-2-((2,5-dichloro-4-(4-(4-methylpiperazin-1-yl)piperidin-1-yl)phenyl)amino)pyrimidin-4-yl)amino)-2,3-dihydrobenzofuran-5-yl)methanesulfonamide]	0.5 to 2
0.1 to 0.5	0.001 to 0.025	0.1 to 0.5	0.001 to 0.025	0.025 to 0.1	COc1cc(N2CCC(N3CCCC(N(C)C)C3)CC2)c(C)cc1Nc1ncc(Cl)c(Nc2cc3c(cc2NS(C)(=O)=O)CCO3)n1 (stereo not drawn) [Example 218, N-(6-((5-chloro-2-((4-(3-(dimethylamino)-[1,4′-bipiperidin]-1′-yl)-2-methoxy-5-methylphenyl)amino)pyrimidin-4-yl)amino)-2,3-dihydrobenzofuran-5-yl)methanesulfonamide]	0.5 to 2
0.1 to 0.5	0.001 to 0.025	0.025 to 0.1	0.001 to 0.025	0.001 to 0.025	COc1cc(N2CCC(N3CCCC(N(C)C)C3)CC2)c(Cl)cc1Nc1ncc(Cl)c(Nc2cc3c(cc2NS(C)(=O)=O)CCO3)n1 (stereo not drawn) [Example 219, N-(6-((5-chloro-2-((5-chloro-4-(3-(dimethylamino)-[1,4′-bipiperidin]-1′-yl)-2-methoxyphenyl)amino)pyrimidin-4-yl)amino)-2,3-dihydrobenzofuran-5-yl)methanesulfonamide]	2 to 10
0.5 to 2	0.1 to 0.5	0.1 to 0.5	0.1 to 0.5	0.025 to 0.1	COc1cc(N2CCC(N3CCN(C)CC3)CC2)ccc1Nc1ncc(Cl)c(Nc2cc3c(cc2NS(C)(=O)=O)CCO3)n1 [Example 220, N-(6-((5-chloro-2-((2-methoxy-4-(4-(4-methylpiperazin-1-yl)piperidin-1-yl)phenyl)amino)pyrimidin-4-yl)amino)-2,3-dihydrobenzofuran-5-yl)methanesulfonamide]	0.025 to 0.1
0.1 to 0.5	0.025 to 0.1	0.025 to 0.1	0.025 to 0.1	0.025 to 0.1	CN1CCN(C2CCN(c3ccc(Nc4ncc(Cl)c(Nc5cc6c(cc5NS(C)(=O)=O)CCO6)n4)c(Cl)c3)CC2)CC1 [Example 221, N-(6-((5-chloro-2-((2-chloro-4-(4-(4-methylpiperazin-1-yl)piperidin-1-yl)phenyl)amino)pyrimidin-4-yl)amino)-2,3-dihydrobenzofuran-5-yl)methanesulfonamide]	0.5 to 2
0.1 to 0.5	0.001 to 0.025	0.1 to 0.5	0.001 to 0.025	0.001 to 0.025	COc1cc(N2CCC(N3CCN(C)CC3)CC2)c(F)cc1Nc1ncc(Cl)c(Nc2cc3c(cc2NS(C)(=O)=O)CCO3)n1 [Example 222, N-(6-((5-chloro-2-((5-fluoro-2-methoxy-4-(4-(4-methylpiperazin-1-yl)piperidin-1-yl)phenyl)amino)pyrimidin-4-yl)amino)-2,3-dihydrobenzofuran-5-yl)methanesulfonamide]	2 to 10
2 to 10	0.5 to 2	0.5 to 2	0.1 to 0.5	0.1 to 0.5	CN1CCN(C2CCN(c3ccc4cc(Nc5ncc(Cl)c(Nc6cc7c(cc6NS(C)(=O)=O)CCO7)n5)ccc4n3)CC2)CC1 [Example 223, N-(6-((5-chloro-2-((2-(4-(4-methylpiperazin-1-yl)piperidin-1-yl)quinolin-6-yl)amino)pyrimidin-4-yl)amino)-2,3-dihydrobenzofuran-5-yl)methanesulfonamide]	2 to 10
0.5 to 2	0.025 to 0.1	0.025 to 0.1	0.1 to 0.5	0.025 to 0.1	COc1cc(N2CCC(Nc3ccnn3C)CC2)c(C)cc1Nc1ncc(Cl)c(Nc2cc3c(cc2NS(C)(=O)=O)CCO3)n1 [Example 224, N-(6-((5-chloro-2-((2-methoxy-5-methyl-4-(4-((1-methyl-1H-pyrazol-5-yl)amino)piperidin-1-yl)phenyl)amino)pyrimidin-4-yl)amino)-2,3-dihydrobenzofuran-5-yl)methanesulfonamide]	0.1 to 0.5
0.5 to 2	0.001 to 0.025	0.025 to 0.1	0.025 to 0.1	0.025 to 0.1	COc1cc(N2CCC(N3CCN(C(F)(F)F)CC3)CC2)c(C)cc1Nc1ncc(Cl)c(Nc2cc3c(cc2NS(C)(=O)=O)CCO3)n1 [Example 225, N-(6-((5-chloro-2-((2-methoxy-5-methyl-4-(4-(4-(trifluoromethyl)piperazin-1-yl)piperidin-1-yl)phenyl)amino)pyrimidin-4-yl)amino)-2,3-dihydrobenzofuran-5-yl)methanesulfonamide]	2 to 10
0.1 to 0.5	0.025 to 0.1	0.025 to 0.1	0.025 to 0.1	0.025 to 0.1	CN1CCN(C2CCN(c3cc(Cl)c(Nc4ncc(Cl)c(Nc5cc(Cl)ccc5N(C)S(C)(=O)=O)n4)cc3Cl)CC2)CC1 [Example 226, N-(4-chloro-2-((5-chloro-2-((2,5-dichloro-4-(4-(4-methylpiperazin-1-yl)piperidin-1-yl)phenyl)amino)pyrimidin-4-yl)amino)phenyl)-N-methylmethanesulfonamide]	0.5 to 2
0.001 to 0.025	0.001 to 0.025	0.025 to 0.1	0.001 to 0.025	0.001 to 0.025	Cc1cc(Nc2ncc(Br)c(Nc3cc(Cl)ccc3N(C)S(C)(=O)=O)n2)c(Cl)cc1N1CCC(N2CCC(N(C)C)C2)CC1 (stereo not drawn) [Example 227, N-(2-((5-bromo-2-((2-chloro-4-(4-(3-(dimethylamino)pyrrolidin-1-yl)piperidin-1-yl)-5-methylphenyl)amino)pyrimidin-4-yl)amino)-4-chlorophenyl)-N-methylmethanesulfonamide]	0.1 to 0.5
0.1 to 0.5	0.001 to 0.025	0.025 to 0.1	0.025 to 0.1	0.001 to 0.025	CN1CCN(C2CCN(c3cc(Cl)c(Nc4ncc(Br)c(Nc5cc(Cl)ccc5N(C)S(C)(=O)=O)n4)cc3Cl)CC2)CC1 [Example 228, N-(2-((5-bromo-2-((2,5-dichloro-4-(4-(4-methylpiperazin-1-yl)piperidin-1-yl)phenyl)amino)pyrimidin-4-yl)amino)-4-chlorophenyl)-N-methylmethanesulfonamide]	0.1 to 0.5
